{
  "source": "patent US9161936B2",
  "about": "“Laquinimod for treatment of GABA mediated disorders” (TEVA PHARMACEUTICAL INDUSTRIES, LTD., priority 2012, dated 2015)",
  "key": {"[1]": {"tested_on": "glutamate-mediated sEPSCs in control neurons", "assay": "Bath application of LQ on corticostriatal slices of wild type mice, sEPSCs", "format": "cell-based, mouse"}, "[2]": {"target": "cannabinoid CB1 receptor (Mus musculus, UniProt P47746)", "sequence (P47746 whole entry)": "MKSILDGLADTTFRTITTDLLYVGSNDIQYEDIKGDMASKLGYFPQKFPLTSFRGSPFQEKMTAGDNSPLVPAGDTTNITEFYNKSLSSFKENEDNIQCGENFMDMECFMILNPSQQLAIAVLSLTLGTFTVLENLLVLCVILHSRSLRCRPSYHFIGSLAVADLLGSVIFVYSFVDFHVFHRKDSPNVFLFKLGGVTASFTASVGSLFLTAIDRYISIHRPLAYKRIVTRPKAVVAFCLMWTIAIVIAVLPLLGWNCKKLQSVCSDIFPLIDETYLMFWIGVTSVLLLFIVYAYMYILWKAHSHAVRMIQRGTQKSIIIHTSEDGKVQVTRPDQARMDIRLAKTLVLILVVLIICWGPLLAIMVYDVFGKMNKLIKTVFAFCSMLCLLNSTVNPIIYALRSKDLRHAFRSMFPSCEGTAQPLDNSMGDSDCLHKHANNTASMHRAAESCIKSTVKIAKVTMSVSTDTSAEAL", "assay": "Effect of HU210 on sIPSC frequency in striatal neurons (CB1 sensitivity of GABA synapses)", "conditions": "for sIPSC frequency respect to pre-drug values: HU210 1 μM", "method": "Recordings were performed between 25 and 35 dpi. Mice were killed by cervical dislocation under halothane anaesthesia, and corticostriatal coronal slices (200 μm) were prepared from fresh tissue blocks of the brain with the use of a vibratome (Centonze et al., 2007, 2009; Rossi et al., 2010a,b). A single slice was then transferred to a recording chamber and submerged in a continuously flowing artificial CSF (ACSF) (34° C., 2-3 ml/min) gassed with 95% O2-5% CO2. The composition of the control ACSF was (in mM): 126 NaCl, 2.5 KCl, 1.2 MgCl2, 1.2 NaH2PO4, 2.4 CaCl2, 11 Glucose, 25 NaHCO3. Recording pipettes were advanced towards individual striatal cells in the slice under positive pressure and visual control (WinVision 2000, Delta Sistemi, Italy) and, on contact, tight GΩ seals were made by applying negative pressure. The membrane patch was then ruptured by suction and membrane current and potential monitored using an Axopatch 1D patch clamp amplifier (Axon Instruments, Foster City, Calif., USA). Whole-cell access resistances measured in voltage clamp were in the range of 5-20 MΩ. Whole-cell patch clamp recordings were made with borosilicate glass pipettes (1.8 mm o.d.; 2-3 MΩ), in voltage-clamp mode, at the holding potential (HP) of −80 mV. […] Conversely, to detect spontaneous GABAAmediated inhibitory postsynaptic currents (sIPSCs), intraelectrode solution had the following composition (mM): CsCl (110), K+-gluconate (30), ethylene glycol-bis(β-aminoethyl ether)-N,N,N′,N′-tetra-acetic acid (EGTA; 1.1), HEPES (10), CaCl2 (0.1), Mg-ATP (4), Na-GTP (0.3). MK-801 (30 μM) and CNQX (10 μM) were added to the external solution to block, respectively, NMDA and nonNMDA glutamate receptors. Synaptic events were stored by using P-CLAMP (Axon Instruments) and analyzed off line on a personal computer with Mini Analysis 5.1 (Synaptosoft, Leonia, N.J., USA) software. The detection threshold of spontaneous IPSCs and EPSCs was set at twice the baseline noise. The fact that no false events would be identified was confirmed by visual inspection for each experiment. Offline analysis was performed on spontaneous and miniature synaptic events recorded during fixed time epochs (3-5 min, 3-6 samplings), sampled every 5 or 10 minutes. […] For kinetic analysis, events with peak amplitude between 10 and 50 pA were grouped, aligned by half-rise time, normalized by peak amplitude. In each cell, the events were averaged to obtain rise times, decay times, and half widths (Centonze et al., 2009; Rossi et al., 2010a,b). […]\nFor data presented as mean±SE, n indicates the number of cells. One to six cells per animal were recorded. […] Multiple comparisons were analysed by one-way ANOVA followed by Tukey's HSD test. Comparisons between two groups were analysed by paired or unpaired Student's t-test. […]"}, "[3]": {"tested_on": "EAE mice", "assay": "EAE induction and disease evaluation, preventive daily s.c. LQ", "format": "in vivo, mouse", "conditions": "for mice that developed the disease (incidence): 0-26 d.p.i., 15 mice; for maximum disease score: score 0-5", "description": "Female C57BL/6 mice at 6-8 weeks of age were purchased from Charles River (Calco, Milan, Italy) and housed in pathogen-free conditions. All procedures involving animals were performed according to the guidelines of the San Raffaele Scientific Institute Institutional Animal Care and Use Committee.\nEAE was induced by immunization with 3 subcutaneous injection of 100 μl each, containing a total of 200 μg of myelin oligodendrocyte glycoprotein (MOG) peptide 35-55 (Multiple Peptide System) in incomplete Freund's adjuvant and 8 mg/ml of Mycobacterium tuberculosis (strain H37Ra; Difco). Pertussis toxin (Sigma) (500 ng) was injected on the day of the immunization and again two days later. Body weight and clinical score (0=healthy; 1=limp tail; 2=ataxia and/or paresis of hindlimbs; 3=paralysis of hindlimbs and/or paresis of forelimbs; 4=tetraparalysis; 5=moribund or death) were recorded daily.\nEAE mice were treated once daily by subcutaneous (s.c.) injection of LQ (supplied by Teva Pharmaceutical Industries, Netanya, Israel) (thereafter referred as LQ-EAE). LQ was administered at different doses (from 1 to 25 mg/kg) starting the same day of immunization up to 26 days post immunization (d.p.i.). Sham treated EAE mice (thereafter referred as untreated-EAE) and healthy control mice (thereafter referred as HC) were used as controls. Statistical analysis was performed using the unpaired Student's t-test."}, "[4]": {"tested_on": "GABAA-mediated sIPSCs in striatal neurons", "assay": "Whole-cell patch clamp of sIPSCs in striatal neurons of LQ-treated EAE mice", "format": "in vivo, mouse", "conditions": "LQ-EAE mice 25 mg/kg, n=20"}, "[5]": {"tested_on": "spinal cord of EAE mice", "assay": "Histological evaluation of spinal cord of EAE mice", "format": "in vivo, mouse", "description": "At least 5 mice per group were transcardially perfused through the left cardiac ventricle with saline, plus EDTA 0.5 M for 5-10 min followed by fixation with cold 4% paraformaldehyde (PFA) (Sigma, St Louis, Mo.) in 0.1 M phosphate buffer (pH 7.4). Subsequently, spinal cords and brains were carefully dissected out and post-fixed in 4% PFA for 3-4 h and processed for paraffin embedding. The quantification of neurological damage was performed on 5 μm paraffin CNS sections obtained from HC, LQ-EAE mice, and untreated-EAE mice. Three different staining were used to detect inflammatory infiltrates (H&E), demyelination (Luxol fast blue) and axonal damage (Bielshowsky). Immunohistochemistry for CD3 (pan-T cell marker, Serotec Ltd, Oxford, UK), and BS-I isolectin B4 (biotinilated from Sigma, St Louis, Mo.) was performed to investigate T cells and macrophages within the inflammatory cellular infiltrates, respectively. […] Neuropathological findings were quantified on an average of 18-20 complete cross-sections of spinal cord per mouse taken at 8 different levels of the spinal cord. The number of perivascular inflammatory infiltrates were calculated and expressed as the numbers of inflammatory infiltrates per mm^2, demyelinated areas and axonal loss were expressed as percentage of damaged area per mm2. The number of T cells and macrophages lining within the subarachnoid space or infiltrating the CNS parenchyma was calculated and expressed as the number of cells per mm2. An Olympus microscope for the acquisitions of pictures was used. Statistical analysis was performed using the unpaired Student's t-test."}, "[6]": {"tested_on": "glutamate-mediated sEPSCs in striatal neurons", "assay": "Whole-cell patch clamp of sEPSCs in striatal neurons of LQ-treated EAE mice", "format": "in vivo, mouse", "conditions": "LQ-EAE mice 25 mg/kg"}, "[7]": {"tested_on": "GABAA-mediated sIPSCs in control neurons", "assay": "Bath application of LQ on corticostriatal slices of wild type mice, sIPSCs", "format": "cell-based, mouse"}, "[8]": {"conditions": "systemically administered (Brück et al., 2011); cited from earlier work"}, "[9]": {"conditions": "background statement; cited from earlier work"}, "[10]": {"conditions": "mouse, in vivo, sc, 25 mg/kg"}, "[11]": {"tested_on": "aEAE model", "conditions": "shown in U.S. Pat. No. 6,077,851; cited from earlier work"}, "[12]": {"conditions": "LQ 1 μM bath application, control neurons"}, "[13]": {"conditions": "LQ 1 μM, 12 minutes, control neurons"}, "[14]": {"conditions": "LQ-EAE mice vs untreated-EAE mice"}, "[15]": {"conditions": "s.c. LQ vs untreated-EAE mice, spinal cord sections"}},
  "data": [
    {"smiles": "N#Cc1cc2[nH]c(=O)c(=O)[nH]c2cc1[N+](=O)[O-]", "note": "[CNQX, reference compound]", "values": [
      {"measurement": "blockade of sEPSCs recorded in the presence of LQ", "setting": "[1]; CNQX 10 μM, n=5", "value": "fully blocked"}
    ]},
    {"smiles": "CCCCCCC(C)(C)c1cc(O)c2c(c1)OC(C)(C)[C@@H]1CC=C(CO)C[C@@H]21", "note": "[HU210]", "values": [
      {"measurement": "sIPSC frequency respect to pre-drug values", "setting": "[2]; 10 min, control slices, n=8", "value": "76±3", "unit": "%"},
      {"measurement": "sIPSC frequency respect to pre-drug values", "setting": "[2]; striatal neurons from LQ-EAE mice (25 mg/kg), n=10", "value": "75±3", "unit": "%"},
      {"measurement": "sIPSC frequency respect to pre-drug values", "setting": "[2]; striatal neurons from untreated EAE mice, n=10", "value": "101±3", "unit": "%"}
    ]},
    {"smiles": "CCN(C(=O)c1c(O)c2c(Cl)cccc2n(C)c1=O)c1ccccc1", "note": "[LQ, N-ethyl-N-phenyl-1,2-dihydro-4-hydroxy-5-chloro-1-methyl-2-oxoquinoline-3-carboxamide]", "values": [
      {"measurement": "sEPSC amplitude", "setting": "[1]; [12]", "value": "failed to alter"},
      {"measurement": "sEPSC frequency", "setting": "[1]; [12]", "value": "failed to alter"},
      {"measurement": "sEPSC decay time compared to pre-drug values", "setting": "[1]; [13]", "value": "101±2", "unit": "%"},
      {"measurement": "sEPSC rise time compared to pre-drug values", "setting": "[1]; [13]", "value": "99±1", "unit": "%"},
      {"measurement": "sEPSC amplitude", "setting": "[1]; LQ 10-30 μM bath application, control neurons, n=10, p<0.01", "value": "reducing"},
      {"measurement": "EC50", "setting": "[1]; Mus musculus, Neuron, dose-response curve, bath application, control neurons, read-out: EC50 of LQ-induced decrease of sEPSC amplitude", "value": 4.5, "unit": "µM"},
      {"measurement": "sEPSC frequency respect to pre-drug values", "setting": "[1]; highest concentration of LQ, n=7, p<0.05", "value": "83±2.7", "unit": "%"},
      {"measurement": "mice that developed the disease (incidence)", "setting": "[3]; 1 mg/kg LQ s.c. daily, untreated-EAE 15/15", "value": 86.6, "unit": "%"},
      {"measurement": "maximum disease score", "setting": "[3]; 1 mg/kg LQ s.c. daily, sham 3.5", "value": 3.5},
      {"measurement": "cumulative score (0-26 dpi)", "setting": "[3]; 1 mg/kg LQ s.c. daily, untreated EAE 27.5", "value": 27.3},
      {"measurement": "mean disease onset", "setting": "[3]; 1 mg/kg LQ s.c. daily, untreated-EAE 11.9 (±2.33)", "value": "11.9 (±2.47)"},
      {"measurement": "cumulative score (0-26 dpi)", "setting": "[3]; 5 mg/kg LQ s.c. daily", "value": 21.5},
      {"measurement": "mean disease onset", "setting": "[3]; 5 mg/kg LQ s.c. daily", "value": "14.6 (±4.29)"},
      {"measurement": "mice that developed the disease (incidence)", "setting": "[3]; 5 mg/kg LQ s.c. daily", "value": 80, "unit": "%"},
      {"measurement": "maximum disease score", "setting": "[3]; 5 mg/kg LQ s.c. daily", "value": 3},
      {"measurement": "cumulative score (0-26 dpi)", "setting": "[3]; 25 mg/kg LQ s.c. daily", "value": 21.3},
      {"measurement": "mice that developed the disease (incidence)", "setting": "[3]; 25 mg/kg LQ s.c. daily", "value": 40, "unit": "%"},
      {"measurement": "maximum disease score", "setting": "[3]; 25 mg/kg LQ s.c. daily", "value": 1.5},
      {"measurement": "suppression of EAE", "setting": "[3]; preventive treatment 0-26 dpi, daily s.c. 1-25 mg/kg, dose-dependent", "value": "significantly suppresses"},
      {"measurement": "mean disease onset", "setting": "[3]; printed \"the mg/kg LQ-EAE mice\" (dose figure missing), s.c. daily", "value": "13.5 (±2.43)"},
      {"measurement": "effect of CB1 receptor agonist HU210 on sIPSCs after LQ treatment", "setting": "[2]; prophylactic LQ 25 mg/kg in EAE mice", "value": "completely restored"},
      {"measurement": "sIPSC frequency", "setting": "[4]; untreated-EAE 0.8±0.1, HC 1.7±0.1", "value": "2.0±0.2", "unit": "Hz"},
      {"measurement": "sIPSC amplitude", "setting": "[4]; untreated-EAE 20±1.5, HC 32±1.3", "value": "29±1.1", "unit": "pA"},
      {"measurement": "CD3+ T cells", "setting": "[5]; [14]", "value": "significant reduction"},
      {"measurement": "IB4+ macrophages", "setting": "[5]; [14]", "value": "significant reduction"},
      {"measurement": "axonal damage (percentage over total section area)", "setting": "[5]; [15]", "value": "significantly reduces"},
      {"measurement": "inflammation (perivascular infiltrates per section)", "setting": "[5]; [15]", "value": "significantly reduces"},
      {"measurement": "myelin loss (demyelination, percentage over total section area)", "setting": "[5]; [15]", "value": "significantly reduces"},
      {"measurement": "sEPSC decay time", "setting": "[6]; 25-35 dpi, n=20, untreated-EAE 5.4±0.4, HC 3.4±0.2", "value": "4.2 ± 0.3", "unit": "ms"},
      {"measurement": "sEPSC frequency", "setting": "[6]; n=20, untreated-EAE 4.0±0.2, HC 2.7±0.2", "value": "3.4±0.4", "unit": "Hz"},
      {"measurement": "sEPSC half-width", "setting": "[6]; n=20, untreated-EAE 6.4±0.4, HC 4.0±0.3", "value": "5.0 ± 0.3", "unit": "ms"},
      {"measurement": "sEPSC rise time", "setting": "[6]; untreated-EAE 1.05±0.1, HC 1.03±0.1", "value": "0.98 ± 0.1", "unit": "ms"},
      {"measurement": "sEPSC amplitude", "setting": "[6]; untreated-EAE 11.1±0.8, HC 12.0±1.0", "value": "12.2±1.1", "unit": "pA"},
      {"measurement": "sIPSC amplitude", "setting": "[7]; LQ 1 μM bath application", "value": "failed to alter"},
      {"measurement": "sIPSC frequency", "setting": "[7]; LQ 1 μM bath application", "value": "failed to alter"},
      {"measurement": "sIPSC decay time compared to pre-drug values", "setting": "[7]; LQ 1 μM, 12 minutes", "value": "98±3", "unit": "%"},
      {"measurement": "sIPSC rise time compared to pre-drug values", "setting": "[7]; LQ 1 μM, 12 minutes", "value": "101±2", "unit": "%"},
      {"measurement": "sIPSC frequency", "setting": "[7]; LQ 10-30 μM bath application, n=8, p<0.01", "value": "significantly increased"},
      {"measurement": "EC50", "setting": "[7]; Mus musculus, Neuron, dose-response curve, bath application, read-out: EC50 of LQ-induced increase of sIPSC frequency", "value": 4.3, "unit": "µM"},
      {"measurement": "crossing of the blood brain barrier", "setting": "[8]", "value": "able to cross the blood brain barrier"},
      {"measurement": "oral bioavailability", "setting": "[9]", "value": "high"},
      {"measurement": "CNS concentration", "setting": "[10]", "value": "0.3 to 1", "unit": "µM"},
      {"measurement": "efficacy in the acute experimental autoimmune encephalomyelitis (aEAE) model", "setting": "[11]", "value": "effective"}
    ]}
  ]
}
